Measurements reported in US9776967B2, “Carboxamide derivatives as pesticidal compounds” (priority 2013, dated 2017).
Read-outs that look alike come from different tables or passages of the source. Blank lines part the entries; values can stand above or below the compound they belong to.

Key:
[1] = LogP by HPLC on reversed phase columns (EEC directive 79/831 Annex V.A8); type: physicochemical
Protocol: Calibration was done with straight-chain alkan2-ones (with 3 to 16 carbon atoms) with known Log P values (measurement of Log P values using retention times with linear interpolation between successive alkanones). Lambda-max-values were determined using UV-spectra from 200 nm to 400 nm and the peak values of the chromatographic signals.

Haemonchus contortus = experiment: In vitro assay with Haemonchus contortus (HAEMCO), larval mortality; conditions: 120 h; for mortality at 20 ppm: read-out: activity (larval mortality); for Emax at 0.8 ppm / Emax at 4 ppm / Emax at 20 ppm: HAEMCO, 5dat, comparative example, read-out: % Efficacy
Protocol: In Vitro Assay with Haemonchus contortus (HAEMCO)
(§1) Solvent: Dimethyl Sulfoxide
(§2) To produce a suitable preparation of active compound, 10 mg of active compound are dissolved in 0.5 ml solvent, and the concentrate is diluted with “Ringer's solution” to the desired concentration.
Approximately 40 larvae of the red stomach worm (Haemonchus contortus) are transferred into a test tube containing compound solution.
After 5 days percentage of larval mortality are recorded. 100% efficacy means all larvae are killed, 0% efficacy means no larvae are killed.

Cooperia curticei = experiment: In vitro assay with Cooperia curticei (COOPCU), larval mortality; conditions: 120 h, read-out: activity (larval mortality)
Protocol: In Vitro Assay with Cooperia curticei (COOPCU)
as §1, §2
Approximately 40 nematode larvae (Cooperia curticei) are transferred into a test tube containing the compound solution.
After 5 days percentage of larval mortality is recorded. 100% efficacy means all larvae are killed; 0% efficacy means no larvae are killed.

Meloidogyne incognita = Meloidogyne incognita (MELGIN) assay, gall formation on salad seedlings; type: in vivo; conditions: 336 h, after 14 days, read-out: nematicidal activity (percentage of gall formation; 100% = no galls)
Protocol: Meloidogyne incognita (MELGIN) Assay
Solvent: 125.0 parts by weight of acetone
To produce a suitable preparation of active compound, 1 part by weight of active compound is mixed with the stated amount of solvent, and the concentrate is diluted with water to the desired concentration.
Vessels are filled with sand, a solution of the active ingredient, a suspension containing eggs and larvae of the southern root-knot nematode (Meloidogyne incognita) and salad seeds. The salad seeds germinate and the seedlings grow. Galls develop in the roots.
After 14 days the nematicidal activity is determined on the basis of the percentage of gall formation. 100% means no galls were found and 0% means the number of galls found on the roots of the treated plants was equal to that in untreated control plants.

[2] = tested on: Nippostrongylus brasiliensis; experiment: In vitro assay with Nippostrongylus brasiliensis (NIPOBR), acetylcholine esterase readout; conditions: adult worms, read-out: activity (reduction of AChE compared to negative control); for inhibition at 1 ppm: 1 ppm (1 μg/ml); for inhibition at 10 ppm: 10 ppm (10 μg/ml)
Protocol: In Vitro Assay with Nippostrongylus brasiliensis (NIPOBR)
Adult Nippostrongylus brasiliensis were washed with saline buffer containing 100 U/ml penicillin, 0.1 mg/ml streptomycin and 2.5 μg/ml amphotericin B. Test compounds were dissolved in DMSO and worms were incubated in medium in a final concentration of 10 μg/ml (10 ppm) respectively 1 μg/ml (1 ppm). An aliquot of the medium was used to determine the acetylcholine esterase activity in comparison to a negative control. The principle of measuring acetylcholine esterase as readout for anthelmintic activity was described in Rapson et al (1986) and Rapson et al (1987).

[3] = LC-UV, acidic range, 0.1% formic acid in water and acetonitrile, read-out: logP (HCOOH) [a]
[4] = reversed-phase HPLC column, LC-UV, acidic range, 0.1% formic acid in water and acetonitrile, read-out: logP (HCOOH) [a]

Structure (SMILES): CSc1ccc(-c2cnc(C(F)(F)CNC(=O)c3ccccc3C(F)(F)F)c(Cl)c2)cc1 [Example 35]
chromatographic logP [1, 3]: 4.1

Structure (SMILES): O=C(NCC(F)(F)c1ncc(-c2ccc(N3CCCC3)cc2)cc1Cl)c1ccccc1C(F)(F)F [Example 30]
chromatographic logP [1, 3]: 4.83 | mortality at 20 ppm (Haemonchus contortus; 20 ppm, after 5 days): 90% | mortality at 20 ppm (Cooperia curticei): 100%

Structure (SMILES): O=C(NCC(F)(F)c1ncc(-c2ccc(F)cc2)cc1Cl)c1cccnc1C(F)(F)F [Example 26]
pest or weed control at 20 ppm (Meloidogyne incognita): 100% | chromatographic logP [1, 3]: 3.29

Structure (SMILES): O=C(NCC(F)(F)c1ncc(-c2ccc(OC(F)F)cc2)cc1Cl)c1ccccc1C(F)(F)F [Example 4]
inhibition at 1 ppm [2]: ≥ 60% | inhibition at 10 ppm [2]: ≥ 60% | pest or weed control at 20 ppm (Meloidogyne incognita): 100% | chromatographic logP ([1]; logP (HCOOH) [a]): 3.78 | mortality at 20 ppm (Haemonchus contortus): 100% | mortality at 20 ppm (Cooperia curticei): 100%

Structure (SMILES): O=C(NCC(F)(F)c1ncc(-c2ccc3c(c2)OC(F)(F)O3)cc1Cl)c1ccccc1C(F)(F)F [Example 25]
chromatographic logP [1, 3]: 4.18

Structure (SMILES): O=C(NCC(F)(F)c1ncc(-c2ccc(Cl)cc2)cc1Cl)c1ccccc1C(F)(F)F [Example 2, N-{2-[3-chloro-5-(4-chlorophenyl)pyridin-2-yl]-2,2-difluoroethyl}-2-(trifluoromethyl)-benzamide]
inhibition at 1 ppm [2]: ≥ 60% | chromatographic logP [1, 3]: 4.17 | mortality at 20 ppm (Haemonchus contortus; 20 ppm, after 5 days): 100% | mortality at 20 ppm (Cooperia curticei): 100%

Structure (SMILES): O=C(NCC(F)(F)c1ncc(-c2ccccc2Cl)cc1Cl)c1ccccc1C(F)(F)F [Example 16]
inhibition at 1 ppm [2]: ≥ 60% | inhibition at 10 ppm [2]: ≥ 60% | chromatographic logP ([1]; logP (HCOOH) [a]): 4 | mortality at 20 ppm (Haemonchus contortus): 100% | mortality at 20 ppm (Cooperia curticei): 100%

chromatographic logP [1, 4]: 3.29
Structure (SMILES): N#Cc1ccc(-c2cnc(C(F)(F)CNC(=O)c3ccccc3C(F)(F)F)c(Cl)c2)cc1 [Example 37]

Structure (SMILES): O=C(NCC(F)(F)c1ncc(-c2cccc(Cl)c2)cc1Cl)c1ccccc1C(F)(F)F [Example 3]
inhibition at 1 ppm [2]: ≥ 60% | inhibition at 10 ppm [2]: ≥ 60% | chromatographic logP ([1]; logP (HCOOH) [a]): 4.17 | mortality at 20 ppm (Haemonchus contortus): 100% | mortality at 20 ppm (Cooperia curticei): 100%

Structure (SMILES): Cc1ccc(-c2cnc(C(C)(F)CNC(=O)c3cccnc3C(F)(F)F)c(Cl)c2)cc1 (stereo not shown) [Example 22]
chromatographic logP [1, 3]: 2.15

Structure (SMILES): O=C(NCC(F)(F)c1ncc(-c2ccccc2)cc1Cl)c1ccccc1C(F)(F)F [Example 5]
inhibition at 1 ppm [2]: ≥ 60% | inhibition at 10 ppm [2]: ≥ 60% | pest or weed control at 20 ppm (Meloidogyne incognita): 90% | chromatographic logP ([1]; logP (HCOOH) [a]): 3.75 | mortality at 20 ppm (Haemonchus contortus): 100% | mortality at 20 ppm (Cooperia curticei): 100%

Structure (SMILES): CC(F)(CNC(=O)c1cccnc1C(F)(F)F)c1ncc(-c2ccc(Cl)cc2)cc1Cl (stereo not shown) [Example 20]
chromatographic logP [1, 3]: 3.83

Structure (SMILES): O=C(NCC(F)(F)c1ncc(-c2ccccc2F)cc1Cl)c1ccccc1C(F)(F)F [Example 13]
inhibition at 1 ppm [2]: ≥ 60% | chromatographic logP ([1]; logP (HCOOH) [a]): 3.73 | mortality at 20 ppm (Haemonchus contortus): 100% | mortality at 20 ppm (Cooperia curticei): 100%

Structure (SMILES): COc1ccc(-c2cnc(C(F)(F)CNC(=O)c3ccccc3C(F)(F)F)c(Cl)c2)cc1Cl [Example 6]
pest or weed control at 20 ppm (Meloidogyne incognita): 90% | chromatographic logP [1, 3]: 3.94 | mortality at 20 ppm (Haemonchus contortus; 20 ppm, after 5 days): 100% | mortality at 20 ppm (Cooperia curticei): 100%

Structure (SMILES): O=C(NCC(F)(F)c1ncc(-c2ccc(F)c(C(F)(F)F)c2)cc1Cl)c1ccccc1C(F)(F)F [Example 34]
chromatographic logP [1, 3]: 4.19

Structure (SMILES): CC(=O)Nc1ccc(-c2cnc(C(F)(F)CNC(=O)c3ccccc3C(F)(F)F)c(Cl)c2)cc1 [Example 38]
chromatographic logP [1, 3]: 2.7

Structure (SMILES): O=C(NCC(F)(F)c1ncc(-c2ccc(N3CCOCC3)cc2)cc1Cl)c1ccccc1C(F)(F)F [Example 32]
chromatographic logP [1, 3]: 3.59 | mortality at 20 ppm (Cooperia curticei): 100%

Structure (SMILES): Cc1ccccc1-c1cnc(C(F)(F)CNC(=O)c2ccccc2C(F)(F)F)c(Cl)c1 [Example 9]
pest or weed control at 20 ppm (Meloidogyne incognita): 100% | chromatographic logP [1, 3]: 4 | mortality at 20 ppm (Haemonchus contortus; 20 ppm, after 5 days): 100% | mortality at 20 ppm (Cooperia curticei): 100%

Structure (SMILES): O=C(NCC(F)(F)c1ncc(-c2cccc(C(F)(F)F)c2)cc1Cl)c1ccccc1C(F)(F)F [Example 10]
inhibition at 1 ppm [2]: ≥ 60% | chromatographic logP ([1]; logP (HCOOH) [a]): 4.17 | mortality at 20 ppm (Haemonchus contortus): 100% | mortality at 20 ppm (Cooperia curticei): 100%

chromatographic logP [1, 4]: 1.18 | chromatographic logP ([1]; reversed-phase HPLC column, LC-UV, neutral range, 0.001 molar ammonium acetate solution in water and acetonitrile, read-out: logP [b]): 2.61
Structure (SMILES): NCC(F)(F)c1ncc(-c2ccc(F)cc2)cc1Cl [INT-1, 2-[3-chloro-5-(4-fluorophenyl)-2-pyridyl]-2,2-difluoro-ethanamine]

Structure (SMILES): CNc1ccc(-c2cnc(C(F)(F)CNC(=O)c3ccccc3C(F)(F)F)c(Cl)c2)cc1 [Example 36]
chromatographic logP [1, 3]: 3.39

Structure (SMILES): O=C(NCC(F)(F)c1ncc(-c2ccc(F)c(F)c2)cc1Cl)c1ccccc1C(F)(F)F [Example 14]
inhibition at 1 ppm [2]: ≥ 60% | inhibition at 10 ppm [2]: ≥ 60% | pest or weed control at 20 ppm (Meloidogyne incognita): 100% | chromatographic logP ([1]; logP (HCOOH) [a]): 3.84 | mortality at 20 ppm (Haemonchus contortus): 100% | mortality at 20 ppm (Cooperia curticei): 100%

Structure (SMILES): O=C(NCC(F)(F)c1ncc(-c2ccc3c(c2)OCO3)cc1Cl)c1ccccc1C(F)(F)F [Example 8]
inhibition at 1 ppm [2]: ≥ 60% | inhibition at 10 ppm [2]: ≥ 60% | pest or weed control at 20 ppm (Meloidogyne incognita): 100% | chromatographic logP ([1]; logP (HCOOH) [a]): 3.53 | mortality at 20 ppm (Haemonchus contortus): 100% | mortality at 20 ppm (Cooperia curticei): 100%

Structure (SMILES): CN(C)c1ccc(-c2cnc(C(F)(F)CNC(=O)c3ccccc3C(F)(F)F)c(Cl)c2)cc1 [Example 17]
chromatographic logP [1, 3]: 4.09 | mortality at 20 ppm (Haemonchus contortus; 20 ppm, after 5 days): 100% | mortality at 20 ppm (Cooperia curticei): 100%

Structure (SMILES): Cc1ccc(-c2cnc(C(C)(F)CNC(=O)c3ccccc3C(F)(F)F)c(Cl)c2)cc1 (stereo not shown) [Example 29]
chromatographic logP [1, 3]: 4.35

Structure (SMILES): CC(F)(CNC(=O)c1ccccc1C(F)(F)F)c1ncc(-c2ccccc2)cc1Cl (stereo not shown) [Example 23]
chromatographic logP [1, 3]: 3.92

Structure (SMILES): CC(F)(CNC(=O)c1cccnc1C(F)(F)F)c1ncc(-c2ccccc2)cc1Cl (stereo not shown) [Example 28]
chromatographic logP [1, 3]: 3.38

Structure (SMILES): O=C(NCCc1ncc(-c2ccc(Cl)cc2)cc1Cl)c1ccccc1C(F)(F)F [Example 1, N-{2-[3-chloro-5-(4-chlorophenyl)pyridin-2-yl]ethyl}-2-(trifluoromethyl)benzamide]
inhibition at 1 ppm [2]: ≥ 60% | inhibition at 10 ppm [2]: ≥ 60% | pest or weed control at 20 ppm (Meloidogyne incognita): 100% | chromatographic logP [1, 3]: 3.97 | mortality at 20 ppm (Haemonchus contortus; 20 ppm, after 5 days): 100% | Emax at 0.8 ppm (Haemonchus contortus): 100% | Emax at 4 ppm (Haemonchus contortus): 100% | Emax at 20 ppm (Haemonchus contortus; 20 ppm): 100% | mortality at 20 ppm (Cooperia curticei): 100%

Structure (SMILES): O=C(NCCc1ccc(-c2ccc(OC(F)(F)F)cc2)cc1)c1ccccc1C(F)(F)F [Ex.-No. 1-49, reference compound]
Emax at 0.8 ppm (Haemonchus contortus): 60% | Emax at 4 ppm (Haemonchus contortus): 60% | Emax at 20 ppm (Haemonchus contortus; 20 ppm): 80%

Structure (SMILES): CS(=O)(=O)c1ccc(-c2cnc(C(F)(F)CNC(=O)c3ccccc3C(F)(F)F)c(Cl)c2)cc1 [Example 33]
chromatographic logP [1, 3]: 2.65

Structure (SMILES): CC(F)(CNC(=O)c1ccccc1C(F)(F)F)c1ncc(-c2ccc(F)cc2)cc1Cl (stereo not shown) [Example 21, N-{2-[3-chloro-5-(4-fluorophenyl)pyridin-2-yl]-2-fluoropropyl}-2-(trifluoromethyl) benzamide]
pest or weed control at 20 ppm (Meloidogyne incognita): 100% | chromatographic logP [1, 3]: 3.96

Structure (SMILES): O=C(NCC(F)(F)c1ncc(-c2ccc(SC(F)(F)F)cc2)cc1Cl)c1ccccc1C(F)(F)F [Example 39]
chromatographic logP [1, 3]: 4.65

Structure (SMILES): O=C(NCC(F)(F)c1ncc(-c2cc(F)cc(F)c2)cc1Cl)c1ccccc1C(F)(F)F [Example 12]
inhibition at 1 ppm [2]: ≥ 60% | inhibition at 10 ppm [2]: ≥ 60% | chromatographic logP ([1]; logP (HCOOH) [a]): 3.89 | mortality at 20 ppm (Haemonchus contortus): 100% | mortality at 20 ppm (Cooperia curticei): 100%

Structure (SMILES): O=C(NCC(F)(F)c1ncc(-c2ccc(F)cc2)cc1Cl)c1nccnc1C(F)(F)F [Example 19]
pest or weed control at 20 ppm (Meloidogyne incognita): 90% | chromatographic logP [1, 3]: 3.51 | mortality at 20 ppm (Haemonchus contortus; 20 ppm, after 5 days): 100% | mortality at 20 ppm (Cooperia curticei): 100%

Structure (SMILES): CN1CCN(c2ccc(-c3cnc(C(F)(F)CNC(=O)c4ccccc4C(F)(F)F)c(Cl)c3)cc2)CC1 [Example 31]
chromatographic logP [1, 3]: 1.78 | chromatographic logP ([1]; LC-UV, neutral range, 0.001 molar ammonium acetate solution in water and acetonitrile, read-out: logP [b]): 3.39 | mortality at 20 ppm (Haemonchus contortus; 20 ppm, after 5 days): 100% | mortality at 20 ppm (Cooperia curticei): 100%
